Data from patent publication US9056923B2, “Mimetic peptides derived from collagen type IV and their use for treating angiogenesis- and lymphagiogenesis-dependent diseases” (THE JOHNS HOPKINS UNIVERSITY, priority 2010, dated 2015).
Ends that are not written are not given here.

Tests used:
[1] = system: VEGF mediated retinal neovascularization; assay: Rho/VEGF transgenic mice model of retinal neovascularization; type: in vivo; conditions: 0.01, 0.1, or 1 μg into the mouse eye
Experimental: The ocular Rho/VEGF transgenic mice model of wet age-related macular degeneration also was used to test some of the peptides. Transgenic mice in which the rhodopsin promoter drives expression of VEGF in photoreceptors have the onset of VEGF production at P7 and develop extensive NV along the outer surface of the retina by P21 (Okamoto et al., 1997; To be et al., 1998). Mice hemizygous for the transgene (n=15 for each dose) were given an intraocular injection of 1 μl of PBS containing 0.01, 0.1, or 1 μg of peptide or scramble peptide in one eye at P7 and P14 and at P21 the mice were anesthetized, perfused with fluorescein-labeled dextran, and the total area of neovascularization on the outer surface of the retina was measured on retinal flat mounts by image analysis as above.

[2] = system: lymphatic endothelial cells (LEC); assay: LEC adhesion assay; type: cell-based
Experimental: Similar to the migration assays, the inhibition activity of the peptide in cellular adhesion was assessed using the RT-CIM technology. In this case, 25,000 cells/well were plated in 16 wells E-plates (Roche, Basel Switzerland) in the presence or absence of the peptide. The adhesion was monitored over time (3 hours) by measuring changes in the electrical impedance, which is a direct measure of the cells adhering on the electrodes. […] Assays were performed in at least two independent replicates and each replicate was performed using two experimental duplicates.

MDA-MB-231 tumors = assay: MRI of tumor vascular volume and permeability surface-area product; type: in vivo, mice; conditions: vs control
Experimental: MRI of vascular volume and permeability surface-area product (PSP) were determined as follows. Mice with volume-matched tumors were treated with SP2024 or vehicle and imaged 24 h post treatment. The mice were anesthetized and the tail vein was catheterized before placing the animal in the spectrometer. All imaging studies were performed on a 4.7 T Bruker Avance spectrometer, as previously described (Raman et al., 2006; Bhujwalla et al., 2001) using a home-built solenoid coil placed around the tumor. Briefly, multislice relaxation rate (1/T1) maps were obtained by a saturation recovery method combined with fast T1 SNAPSHOT-FLASH imaging (flip angle of 10°, echo time of 2 ms). […] The detectable areas of vascular volume and permeability as well as absolute values of vascular volume and permeability were analyzed. […] Volume fractions of the regions were determined using the histogram analysis of the volume data. […] Statistical significance (p<0.05) within each experiment using the independent replicates was assessed using standard statistical assessments such as Student's t-test and ANOVA accompanied by Dunnett's test if different sets of data were compared to one group.

HUVEC = HUVEC tube formation assay on Matrigel; type: cell-based, human
Method in brief: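 HUVEC (15,000/well) plated on polymerized Matrigel in complete media with or without peptide for 19 h at 37 °C. Tube networks imaged by microscopy, one random field per well, in triplicate wells across at least two independent experiments.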

[3] = system: MDA-MB-231-luc-D3H2LN cells; assay: Tail vein assay of cancer metastasis (lung metastasis); type: in vivo; conditions: luciferase-transfected MDA-MB-231 cells in nude mice, IVIS
Experimental: The tail vein assay of cancer metastasis protocol from Current Protocols of Cell Biology was used to measure the effect of SP2024 on lung metastasis (Elkin and Vlodaysky, 2001). […] of 5×10^5 cells/mL luciferase-transfected MDA-MB-231-luc-D3H2LN (Caliper Biosciences) cell suspension was slowly injected into nude mice (nude mice are easier to image because of their lack of fur). Two hours before cell inoculation vehicle or 10 mg/kg SP2024 were administered subcutaneously on a daily basis. Bioluminescence to detect metastasis was measured by IVIS imaging (Caliper Biosciences) via IP injection of 150 mg/kg D-luciferin.

With LRRFSTMPFMFININNVINF-NH2 [SP2024] the “area of retinal neovascularization” value [1] was “generally decreased”, the “inhibition of adhesion of LEC” value [2] was “strong” and the relative vascular volume (MDA-MB-231 tumors) was “reduced relative vascular volume”. The “tumor permeability-surface area product” value (MDA-MB-231 tumors) was “reduced tumor permeability-surface area product”, the “Tube formation Inhibition (100 uM)” value (HUVEC; 100 uM peptide) was “Complete” and the “Activity in Tube formation” value (HUVEC; Yes/No summary) was “Yes”. The lung metastasis [3] was “inhibits lung metastasis”.
